Data published in patent US20230088214A1, “GLYCOLATE OXIDASE INHIBITORS FOR THE TREATMENT OF DISEASE” (BIOMARIN PHARMACEUTICAL INC., priority 2019, published 2023).

Target: T1, GO (Homo sapiens, UniProt Q9UJM8)
T1 sequence (Q9UJM8 1-370): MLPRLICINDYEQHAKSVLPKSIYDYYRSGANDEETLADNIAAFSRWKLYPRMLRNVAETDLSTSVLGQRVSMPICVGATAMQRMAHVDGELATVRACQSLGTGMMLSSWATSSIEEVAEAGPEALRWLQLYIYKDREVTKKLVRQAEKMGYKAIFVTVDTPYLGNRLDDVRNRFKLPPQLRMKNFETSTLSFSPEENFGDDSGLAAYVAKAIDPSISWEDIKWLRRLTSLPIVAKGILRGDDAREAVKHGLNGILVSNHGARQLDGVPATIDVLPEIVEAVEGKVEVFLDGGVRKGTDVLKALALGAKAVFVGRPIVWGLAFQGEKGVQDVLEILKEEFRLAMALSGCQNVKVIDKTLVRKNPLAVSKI
Assay: GO Enzymatic Assay (Assay 1)
Format: biochemical
Parameters: purchased Novus Biologicals NBP1-72412
Details: Table 4; class symbols without asterisk, GO Enzymatic Assay (Assay 1); read-out: Range
Experimental: Assay 1: GO Enzymatic Assay
GO was incubated with its substrate, glycolate, in 50 mM potassium phosphate buffer, pH 7. […] The enzyme was optimized and the kinetics was determined.
Compound inhibition was determined by adding various concentrations of inhibitors in the GO enzyme assay. The IC50 value for each measured compound was generated from sigmoidal dose-response (variable slope) curves with GraphPad Prism software (GraphPad Software, Inc., San Diego, Calif.) using the percent inhibition of GO activity relative to DMSO control.

IC50 [nM] | SMILES
< 100 | N#Cc1ccc([C@H]2C[C@H](Sc3nn[nH]c3C(=O)O)C2)cc1 [Compound 420, 4-(((trans)-3-(4-cyanophenyl)cyclobutyl)thio)-1H-1,2,3-triazole-5-carboxylic acid 2,2,2-trifluoroacetate]
< 100 | O=C(O)c1[nH]nnc1S[C@H]1CC[C@H](c2ccc(OC(F)(F)F)cc2)CC1 [Compound 422, 4-(((trans)-4-(4-(trifluoromethoxy)phenyl)cyclohexyl)thio)-1H-1,2,3-triazole-5-carboxylic acid]
< 100 | N#Cc1ccc(COc2cc(Oc3nn[nH]c3C(=O)O)ccc2Cl)cc1 [Compound 423, 4-(4-chloro-3-((4-cyanobenzyl)oxy)phenoxy)-1H-1,2,3-triazole-5-carboxylic acid]
< 100 | O=C(O)c1[nH]nnc1O[C@H]1CC[C@H](c2ccc(F)cc2F)CC1 [Compound 424, 4-(((trans)-4-(2,4-difluorophenyl)cyclohexyl)oxy)-1H-1,2,3-triazole-5-carboxylic acid 2,2,2-trifluoroacetate]
< 100 | O=C(O)c1[nH]nnc1O[C@H]1CC[C@H](c2ccc(-c3nnc[nH]3)cc2)CC1 [Compound 425, 4-(((trans)-4-(4-(4H-1,2,4-triazol-3-yl)phenyl)cyclohexyl)oxy)-1H-1,2,3-triazole-5-carboxylic acid]
< 100 | O=C(O)c1[nH]nnc1S[C@H]1CC[C@H](c2cc(Cl)ccc2OC(F)(F)F)CC1 [Compound 430, 4-(((trans)-4-(5-chloro-2-(trifluoromethoxy)phenyl)cyclohexyl)thio)-1H-1,2,3-triazole-5-carboxylic acid]
< 100 | O=C(O)c1[nH]nnc1O[C@H]1CC[C@H](c2ccc(-c3nncs3)cc2)CC1 [Compound 431, 4-(((trans)-4-(4-(1,3,4-thiadiazol-2-yl)phenyl)cyclohexyl)oxy)-1H-1,2,3-triazole-5-carboxylic acid 2,2,2-trifluoroacetate]
< 100 | O=C(O)c1[nH]nnc1S[C@H]1CC[C@H](c2ccc(N3CCCCC3)cc2)CC1 [Compound 432, 4-(((trans)-4-(4-(piperidin-1-yl)phenyl)cyclohexyl)thio)-1H-1,2,3-triazole-5-carboxylic acid 2,2,2-trifluoroacetate]
< 100 | O=C(O)c1[nH]nnc1O[C@H]1CC[C@H](c2ccc(-c3nnco3)cc2)CC1 [Compound 433, 4-(((trans)-4-(4-(1,3,4-oxadiazol-2-yl)phenyl)cyclohexyl)oxy)-1H-1,2,3-triazole-5-carboxylic acid]
< 100 | O=C(O)c1[nH]nnc1S[C@H]1C[C@H](c2ccc(N3CCCCC3)cc2)C1 [Compound 434, 4-(((trans)-3-(4-(piperidin-1-yl)phenyl)cyclobutyl)thio)-1H-1,2,3-triazole-5-carboxylic acid 2,2,2-trifluoroacetate]
< 100 | O=C(O)c1[nH]nnc1O[C@H]1CC[C@H](c2ccc(N3CCCCC3)cc2)CC1 [Compound 436, 4-(((trans)-4-(4-(piperidin-1-yl)phenyl)cyclohexyl)oxy)-1H-1,2,3-triazole-5-carboxylic acid 2,2,2-trifluoroacetate]
< 100 | CS(=O)(=O)c1ccc([C@H]2CC[C@H](Oc3nn[nH]c3C(=O)O)CC2)cc1 [Compound 438, 4-(((trans)-4-(4-(methylsulfonyl)phenyl)cyclohexyl)oxy)-1H-1,2,3-triazole-5-carboxylic acid]
< 100 | CS(=O)(=O)c1ccc([C@H]2CC[C@H](Sc3nn[nH]c3C(=O)O)CC2)cc1 [Compound 439, 4-(((trans)-4-(4-(methylsulfonyl)phenyl)cyclohexyl)thio)-1H-1,2,3-triazole-5-carboxylic acid 2,2,2-trifluoroacetate]
< 100 | O=C(O)c1[nH]nnc1O[C@H]1CC[C@H](c2ccc(N3CCCCC3)c(Cl)c2)CC1 [Compound 441, 4-(((trans)-4-(3-chloro-4-(piperidin-1-yl)phenyl)cyclohexyl)oxy)-1H-1,2,3-triazole-5-carboxylic acid 2,2,2-trifluoroacetate]
< 100 | O=C(O)c1[nH]nnc1Oc1ccc(Cl)c(OC2CC2)c1 [Compound 445, 4-(4-chloro-3-cyclopropoxyphenoxy)-1H-1,2,3-triazole-5-carboxylic acid]
< 100 | O=C(O)c1[nH]nnc1COC1CCN(c2cc(Cl)cc(Cl)c2)CC1 [Example 477, 4-(((1-(3,5-dichlorophenyl)piperidin-4-yl)oxy)methyl)-1H-1,2,3-triazole-5-carboxylic acid]
100 to 1000 | O=C(O)c1[nH]nnc1COC1CCN(c2cc(Cl)ccc2Cl)CC1 [Example 481, 4-(((1-(2,5-dichlorophenyl)piperidin-4-yl)oxy)methyl)-1H-1,2,3-triazole-5-carboxylic acid]

SMILES | IC50 [nM]
O=C(O)c1[nH]nnc1O[C@H]1C[C@H](c2ccc(N3CCCCC3)cc2)C1 [Compound 426, 4-((trans)-3-(4-(piperidin-1-yl)phenyl)cyclobutoxy)-1H-1,2,3-triazole-5-carboxylic acid 2,2,2-trifluoroacetate] | < 100

Target: T1, GO
Assay: GO Cellular Assay: CHO-Agt Cells Assay (Assay 3)
Format: cell-based, Chinese hamster
Parameters: host or cells: CHO cells (A.T.C.C. CCl-61) and engineered CHO-Agt cells (from Fargue/Danpure)
Details: 100 uM glycolic acid, glyoxylate by LC-MS at 2 hours, read-out: Range of IC50 values calculated from the cellular assays (Assay 3)
Experimental: Assay 3: GO Cellular Assay: CHO-Agt Cells Assay
CHO cells (A.T.C.C. number CCl-61) and engineered CHO-Agt cells (provided by Dr. Sonia Fargue and Dr. Christopher J. Danpure, Biochem. J. (2006) 394, 409-416) were used as a screening cellular assay for primary compounds. The cells were seeded in 20,000 cell/well in 96 well plate and cultured at 37-C under O2/CO2 (19:1) in Ham's F12 medium (Invitrogen) supplemented with fetal calf serum (10%, v/v), L-glutamine (2 mM), penicillin (100 units/ml) and streptomycin (100 pug/ml). After overnight culture, the cells were treated with various concentrations of inhibitors in the presence of 100 uM glycolic acid in HEPES buffer, pH7.0 (Sigma-Aldrich, Cat #124737). Culture medium was harvested at 2 hours after treatment for glyoxylate analysis and cell viability was measured by Cell Titer-Glo (Fisher Scientific, Cat #. PR-G7570).
The glyoxylate was quantified using LC-MS method. An aliquot of 120 μL medium was removed from each well and protein precipitated by adding 240 μL IS (100 ng/ml 13C2-glyoxylic acid, Sigma-Aldrich, Cat #G755002). The mixture was vortex-mixed well and centrifuged at 3900 rpm for 15 min, 4° C. 100 μL supernatant was then mixed with 10 μL formic acid and 100 μL 400 μM DNPH (2,4-dinitrophenylhydrazine) (Shanghai Runjie Huaxue Shiji Ltd., Cat #A0000436) and the mixture was shaken for 30 minutes. A 3 μL mixture of reaction mixture was injected for LC-MS/MS analysis. (Behnam J T, Williams E L, Brink S, Rumsby G, Danpure C J., “Reconstruction of human hepatocyte glyoxylate metabolic pathways in stably transformed Chinese-hamster ovary cells”, Biochem J. 2006 Mar. 1; 394 (Pt 2):409-16.)

IC50 [nM] | SMILES
> 10000 | CCOC(=O)c1[nH]nnc1Sc1nc(-c2ccc(Cl)c(Cl)c2)cs1 [Compound 1, ethyl 4-((4-(3,4-dichlorophenyl)thiazol-2-yl)thio)-1H-1,2,3-triazole-5-carboxylate]
1000 to 5000 | O=C(OC1CC1)c1[nH]nnc1Oc1ccc2cc(Br)ccc2c1 [Compound 110, cyclopropyl 4-((6-bromonaphthalen-2-yl)oxy)-1H-1,2,3-triazole-5-carboxylate]
< 1000 | CC(C)OC(=O)OCOC(=O)c1[nH]nnc1O[C@H]1CC[C@H](c2ccc(OC(F)(F)F)cc2)CC1 [Compound 302, ((isopropoxycarbonyl)oxy)methyl 4-(((trans)-4-(4-(trifluoromethoxy)phenyl)cyclohexyl)oxy)-1H-1,2,3-triazole-5-carboxylate]
1000 to 5000 | OCc1[nH]nnc1S[C@H]1CC[C@@H](c2ccc(OC(F)(F)F)cc2)CC1 [Compound 489, (4-(((cis)-4-(4-(trifluoromethoxy)phenyl)cyclohexyl)thio)-1H-1,2,3-triazol-5-yl)methanol]
1000 to 5000 | OCc1[nH]nnc1Oc1ccc(-c2ccc(Cl)cc2)cc1 [Compound 493-2, (4-((4′-chloro-[1,1′-biphenyl]-4-yl)oxy)-1H-1,2,3-triazol-5-yl)methanol]
5000 to 10000 | OCc1[nH]nnc1OC1CCN(c2cc(Cl)cc(Cl)c2)CC1 [Compound 494, (4-((1-(3,5-dichlorophenyl)piperidin-4-yl)oxy)-1H-1,2,3-triazol-5-yl)methanol]
> 10000 | OCc1[nH]nnc1SC1CCN(c2cc(Cl)cc(Cl)c2)CC1 [Compound 495, (4-((1-(3,5-dichlorophenyl)piperidin-4-yl)thio)-1H-1,2,3-triazol-5-yl)methanol]
> 10000 | OCc1[nH]nnc1Sc1ccc(-c2ccc(OC(F)(F)F)cc2)cc1 [Compound 497, (4-((4′-(trifluoromethoxy)-[1,1′-biphenyl]-4-yl)thio)-1H-1,2,3-triazol-5-yl)methanol]
